Source: ChEMBL document CHEMBL3603774, “Novel 5-functionalized-pyrazoles: Synthesis, characterization and pharmacological screening” (Bioorg Med Chem Lett, 2015)
In brackets after ≈: the same amount, converted by molar mass.

Tests used:
Staphylococcus aureus [1] = assay: Antibacterial activity against Staphylococcus aureus MTCC 96 assessed as concentration required to completely destroy test microorganisms after 24 hrs; assay type: functional; conditions: MTCC 96, 24 h
Aspergillus niger [2] = assay: Antifungal activity against Aspergillus niger MTCC 281 at 50 ug/ml after 24 hrs by disc diffusion method; assay type: functional; conditions: MTCC 281, 24 h, read-out: IZ
Klebsiella pneumoniae [3] = assay: Antibacterial activity against Klebsiella pneumoniae MTCC 3384 at 50 ug/ml after 24 hrs by disc diffusion method; assay type: functional; conditions: MTCC 3384, 24 h, read-out: IZ
Klebsiella pneumoniae [4] = assay: Antibacterial activity against Klebsiella pneumoniae MTCC 3384 assessed as concentration required to completely destroy test microorganisms after 24 hrs; assay type: functional; conditions: MTCC 3384, 24 h
Aspergillus niger [5] = assay: Antifungal activity against Aspergillus niger MTCC 281 after 48 hrs by microdilution method; assay type: functional; conditions: MTCC 281, 48 h
Aspergillus niger [6] = assay: Antifungal activity against Aspergillus niger MTCC 281 at 100 ug/ml after 24 hrs by disc diffusion method; assay type: functional; conditions: MTCC 281, 24 h, read-out: IZ
Escherichia coli [7] = assay: Antibacterial activity against Escherichia coli MTCC 724 after 24 hrs by microdilution method; assay type: functional; conditions: MTCC 724, 24 h
Klebsiella pneumoniae [8] = assay: Antibacterial activity against Klebsiella pneumoniae MTCC 3384 after 24 hrs by microdilution method; assay type: functional; conditions: MTCC 3384, 24 h
Klebsiella pneumoniae [9] = assay: Antibacterial activity against Klebsiella pneumoniae MTCC 3384 at 100 ug/ml after 24 hrs by disc diffusion method; assay type: functional; conditions: MTCC 3384, 24 h, read-out: IZ
Staphylococcus aureus [10] = assay: Antibacterial activity against Staphylococcus aureus MTCC 96 at 50 ug/ml after 24 hrs by disc diffusion method; assay type: functional; conditions: MTCC 96, 24 h, read-out: IZ
Bacillus cereus [11] = assay: Antibacterial activity against Bacillus cereus MTCC 8372 after 24 hrs by microdilution method; assay type: functional; conditions: MTCC 8372, 24 h
Staphylococcus aureus [12] = assay: Antibacterial activity against Staphylococcus aureus MTCC 96 at 100 ug/ml after 24 hrs by disc diffusion method; assay type: functional; conditions: MTCC 96, 24 h, read-out: IZ
Aspergillus flavus [13] = assay: Antifungal activity against Aspergillus flavus MTCC 873 at 50 ug/ml after 24 hrs by disc diffusion method; assay type: functional; conditions: MTCC 873, 24 h, read-out: IZ
Aspergillus niger [14] = assay: Antifungal activity against Aspergillus niger MTCC 281 assessed as concentration required to completely destroy test microorganisms after 24 hrs; assay type: functional; conditions: MTCC 281, 24 h
Escherichia coli [15] = assay: Antibacterial activity against Escherichia coli MTCC 724 at 50 ug/ml after 24 hrs by disc diffusion method; assay type: functional; conditions: MTCC 724, 24 h, read-out: IZ
Bacillus cereus [16] = assay: Antibacterial activity against Bacillus cereus MTCC 8372 at 100 ug/ml after 24 hrs by disc diffusion method; assay type: functional; conditions: MTCC 8372, 24 h, read-out: IZ
Bacillus cereus [17] = assay: Antibacterial activity against Bacillus cereus MTCC 8372 at 50 ug/ml after 24 hrs by disc diffusion method; assay type: functional; conditions: MTCC 8372, 24 h, read-out: IZ
Escherichia coli [18] = assay: Antibacterial activity against Escherichia coli MTCC 724 assessed as concentration required to completely destroy test microorganisms after 24 hrs; assay type: functional; conditions: MTCC 724, 24 h
Escherichia coli [19] = assay: Antibacterial activity against Escherichia coli MTCC 724 at 100 ug/ml after 24 hrs by disc diffusion method; assay type: functional; conditions: MTCC 724, 24 h, read-out: IZ
Aspergillus flavus [20] = assay: Antifungal activity against Aspergillus flavus MTCC 873 assessed as concentration required to completely destroy test microorganisms after 24 hrs; assay type: functional; conditions: MTCC 873, 24 h
Staphylococcus aureus [21] = assay: Antibacterial activity against Staphylococcus aureus MTCC 96 after 24 hrs by microdilution method; assay type: functional; conditions: MTCC 96, 24 h
Alpha amylase = biological target: T1, Alpha amylase (Homo sapiens, UniProt P0DUB6); assay: Inhibition of alpha-amylase (unknown origin) using starch as substrate after 30 mins by spectrophotometer analysis
T1 sequence (P0DUB6 whole entry): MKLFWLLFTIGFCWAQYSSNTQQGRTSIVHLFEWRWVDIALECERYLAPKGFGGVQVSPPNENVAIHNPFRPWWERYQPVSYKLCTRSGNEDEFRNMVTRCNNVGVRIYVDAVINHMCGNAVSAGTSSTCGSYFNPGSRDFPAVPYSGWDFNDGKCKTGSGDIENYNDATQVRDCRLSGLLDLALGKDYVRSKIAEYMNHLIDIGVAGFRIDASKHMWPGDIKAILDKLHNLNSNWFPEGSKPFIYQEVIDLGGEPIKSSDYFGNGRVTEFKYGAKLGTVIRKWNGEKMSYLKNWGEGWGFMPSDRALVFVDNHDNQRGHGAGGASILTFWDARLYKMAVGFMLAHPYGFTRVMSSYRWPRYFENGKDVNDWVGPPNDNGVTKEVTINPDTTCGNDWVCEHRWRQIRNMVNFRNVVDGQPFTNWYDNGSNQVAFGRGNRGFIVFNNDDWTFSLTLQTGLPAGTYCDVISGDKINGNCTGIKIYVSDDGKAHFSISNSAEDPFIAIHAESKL

Bacillus cereus [22] = assay: Antibacterial activity against Bacillus cereus MTCC 8372 assessed as concentration required to completely destroy test microorganisms after 24 hrs; assay type: functional; conditions: MTCC 8372, 24 h
Aspergillus flavus [23] = assay: Antifungal activity against Aspergillus flavus MTCC 873 after 48 hrs by microdilution method; assay type: functional; conditions: MTCC 873, 48 h
[24] = Inhibition of alpha-glucosidase (unknown origin) using p-nitrophenol glycoside as substrate after 30 mins by colorimetric analysis; design: species or system Homo sapiens
Aspergillus flavus [25] = assay: Antifungal activity against Aspergillus flavus MTCC 873 at 100 ug/ml after 24 hrs by disc diffusion method; assay type: functional; conditions: MTCC 873, 24 h, read-out: IZ

MIC (Aspergillus niger [5]): 40 µg/mL (≈ 88 µM) | MIC (Escherichia coli [7]): 25 µg/mL (≈ 55 µM) | MIC (Klebsiella pneumoniae [8]): 25 µg/mL (≈ 55 µM) | MIC (Bacillus cereus [11]): 20 µg/mL (≈ 44 µM) | MIC (Staphylococcus aureus [21]): 20 µg/mL (≈ 44 µM) | IC50 (Alpha amylase): 40 µg/mL (≈ 88 µM) | MIC (Aspergillus flavus [23]): 50 µg/mL (≈ 110 µM) | IC50 [24]: 45 µg/mL (≈ 99 µM)
Compound: CCOC(=O)c1c(-c2ccccc2)nn(-c2ccccc2)c1Cn1c(S)nc2ccccc21
MBC (Staphylococcus aureus [1]): 150 µg/mL (≈ 330 µM) | zone of inhibition at 50 µg/mL (Aspergillus niger [2]): 10 mm | zone of inhibition at 50 µg/mL (Klebsiella pneumoniae [3]): 8 mm | MBC (Klebsiella pneumoniae [4]): 160 µg/mL (≈ 352 µM) | zone of inhibition at 100 µg/mL (Aspergillus niger [6]): 16 mm | zone of inhibition at 100 µg/mL (Klebsiella pneumoniae [9]): 14 mm | zone of inhibition at 50 µg/mL (Staphylococcus aureus [10]): 8 mm | zone of inhibition at 100 µg/mL (Staphylococcus aureus [12]): 12 mm | zone of inhibition at 50 µg/mL (Aspergillus flavus [13]): 14 mm | MFC (Aspergillus niger [14]): 290 µg/mL (≈ 638 µM) | zone of inhibition at 50 µg/mL (Escherichia coli [15]): 8 mm | zone of inhibition at 100 µg/mL (Bacillus cereus [16]): 11 mm | zone of inhibition at 50 µg/mL (Bacillus cereus [17]): 8 mm | MBC (Escherichia coli [18]): 175 µg/mL (≈ 385 µM) | zone of inhibition at 100 µg/mL (Escherichia coli [19]): 16 mm | MFC (Aspergillus flavus [20]): 290 µg/mL (≈ 638 µM) | MBC (Bacillus cereus [22]): 160 µg/mL (≈ 352 µM) | zone of inhibition at 100 µg/mL (Aspergillus flavus [25]): 18 mm
